Data on one molecule can be found in patent US7309579B2, “Method for screening for activators of soluble guanylate cyclase having oxidized heme iron” (Sanofi-Aventis Deutschland GmbH, priority 1999, dated 2007).

For test [1], the target named is T1, soluble guanylate cyclase with a trivalent heme iron (Bos taurus, UniProt P16068).
T1 construct: suitably diluted sGC enzyme solution (isolated from bovine lung); from tissue; host or cells: bovine lung
T1 sequence (P16068 1-619): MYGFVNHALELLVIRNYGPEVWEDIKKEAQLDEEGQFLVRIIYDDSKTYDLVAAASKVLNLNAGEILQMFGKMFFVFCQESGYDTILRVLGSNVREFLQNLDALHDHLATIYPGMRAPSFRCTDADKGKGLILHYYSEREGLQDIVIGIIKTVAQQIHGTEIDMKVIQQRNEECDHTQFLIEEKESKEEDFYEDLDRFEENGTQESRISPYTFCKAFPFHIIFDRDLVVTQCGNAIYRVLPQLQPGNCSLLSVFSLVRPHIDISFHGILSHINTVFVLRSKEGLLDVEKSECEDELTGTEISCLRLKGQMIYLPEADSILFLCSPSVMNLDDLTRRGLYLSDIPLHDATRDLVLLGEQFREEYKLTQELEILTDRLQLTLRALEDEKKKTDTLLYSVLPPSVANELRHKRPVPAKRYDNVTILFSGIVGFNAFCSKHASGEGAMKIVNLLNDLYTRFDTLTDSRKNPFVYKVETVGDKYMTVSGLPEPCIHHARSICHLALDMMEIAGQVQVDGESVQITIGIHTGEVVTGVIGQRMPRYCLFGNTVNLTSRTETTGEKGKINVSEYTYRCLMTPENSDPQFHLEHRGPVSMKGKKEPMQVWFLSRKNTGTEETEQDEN
T1 sequence (P19687 1-691 partner): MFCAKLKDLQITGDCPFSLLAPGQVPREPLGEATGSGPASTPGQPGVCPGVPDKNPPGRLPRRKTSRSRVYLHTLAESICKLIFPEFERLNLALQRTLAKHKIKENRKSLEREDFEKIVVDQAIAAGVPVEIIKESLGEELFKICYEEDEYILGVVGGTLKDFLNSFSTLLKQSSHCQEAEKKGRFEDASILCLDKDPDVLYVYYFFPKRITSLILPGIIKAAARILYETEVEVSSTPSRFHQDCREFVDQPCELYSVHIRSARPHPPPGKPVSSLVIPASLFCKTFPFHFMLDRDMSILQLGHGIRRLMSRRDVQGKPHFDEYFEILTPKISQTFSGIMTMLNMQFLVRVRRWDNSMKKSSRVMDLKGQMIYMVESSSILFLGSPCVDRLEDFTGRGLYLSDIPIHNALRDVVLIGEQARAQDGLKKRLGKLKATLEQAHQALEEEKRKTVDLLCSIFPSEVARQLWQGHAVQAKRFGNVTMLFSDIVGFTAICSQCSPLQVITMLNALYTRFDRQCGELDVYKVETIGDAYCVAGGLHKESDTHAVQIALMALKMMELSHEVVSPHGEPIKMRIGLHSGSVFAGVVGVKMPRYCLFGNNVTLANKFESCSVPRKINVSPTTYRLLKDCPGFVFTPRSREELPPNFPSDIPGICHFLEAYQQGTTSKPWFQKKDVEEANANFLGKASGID
The test can be described thus: Activation of soluble guanylate cyclase after oxidation of the heme iron (enzyme stored at 4° C. for about 7 days). Particulars: sGC with trivalent heme iron, prepared by storing freshly prepared enzyme at 4° C. for about 7 days. Type of test: biochemical, bovine. The procedure:
(§1) Soluble guanylate cyclase (sGC) catalyzes the conversion of GTP into cGMP and pyrophosphate. In the presence of nicotinamide adenine dinucleotide (NAD^+) and nicotinamide mononucleotide adenylyltransferase (NAT, EC 2.7.7.1), pyrophosphate is converted into ATP and nicotinamide mononucleotide. The ATP formed can be quantified luminometrically with the aid of a luciferase in microtiter plates.
(§2) The substance to be investigated is dissolved in DMSO and diluted with DMSO/water to a final concentration of 50 μM in the assay mixture. The DMSO concentration in the assay mixture should not exceed 5% (v/v).
(§3) 100 μl of reaction mixture should contain 50 mM TEA buffer (pH 7.4), 3 mM MgCl2, 3 mM GSH, 0.1 mM GTP, 1 mM IBMX (isobutylmethylxanthine), 0.2 mM NAD^+, 0.4 mU of NAT, suitably diluted sGC enzyme solution (isolated from bovine lung as described by P. Humbert et al., Methods of Enzymology 195, 384-391 (1991)) and the test substance or solvent (for determining the basal enzyme activity). The reaction is started by adding the sGC. The reaction mixture is incubated at room temperature for 60 min and then stopped by cooling in ice and adding 50 mM EDTA, pH 8.0. […] The relative luminescence units (RLU) can be measured in a microtiter plate luminometer.
(§4) The sGC activity is obtained after subtracting the blank RLU (incubation without enzyme) from the measured RLU. […]

Test [2] deals with T2, heme-free soluble guanylate cyclase (Bos taurus, UniProt P16068).
T2 sequence (P16068 1-619): T1 sequence (P16068 1-619)
T2 sequence (P19687 1-691 partner): T1 sequence (P19687 1-691 partner)
The test can be described thus: Activation of heme-free soluble guanylate cyclase. It is filed as biochemical, bovine. The procedure: as §1, §2, §3, §4

SMILES strings stand for the structures.

For the molecule `COc1cc(NS(=O)(=O)c2ccc(Cl)cc2)c(C(=O)Nc2ccc(S(=O)(=O)N3CCSCC3)cc2)cc1OC` [2-(4-chlorophenylsulfonylamino)-4,5-dimethoxy-N-(4-(thiomorpholine-4-sulfonyl)phenyl)benzamide], the EC50 was 500 nM in test [1] and 2400 nM in test [2] (read-out: affinity). The “stimulation of the activity” value in test [1] was found to be 17.6 fold; in test [2], 58.2 fold.
